This note sets out measurements from patent publication US12448367B2, “Phthalazine derivatives as pyruvate kinase modulators” (Sitryx Therapeutics Limited, priority 2022, dated 2025).

The target of experiment [1] is T1, pyruvate kinase in human CD4+ T cell lysates (Homo sapiens, UniProt P14618).
T1 construct: endogenous in cells; host or cells: primary human CD4+ T cells
Put plainly: CD4+ T cell pyruvate kinase assay (PK activity in lysates of compound-treated cells). It counts as cell-based. The following applies: primary human CD4+ T cells incubated with compound 20 minutes, washed, lysed; ΔAbsorbance OD570 nm. How it is done:
Measuring Pyruvate Kinase (PK) Activity in Human CD4+ T Cell Lysates
Compound activation of pyruvate kinase in human CD4+ T cell lysates was determined by biochemical assay. Primary CD4+ T cells were used rather than cancer cell lines to improve the disease relevance of the assay. The PK assay was sourced from Abcam. All other reagents were sourced from ThermoFisher. Test compounds were prepared as 10 mM DMSO stocks and dilution series prepared in DMSO for addition to intact CD4+ T cells cultured in RPMI media containing 10% FBS.
Human CD4+ T cells were incubated with compound for 20 minutes and then washed twice in 1×PBS before resuspension in Abcam PK lysis buffer to prepare cell lysates. 10 μl PK assay Reaction Mix was added per well, including OXIRED™ PROBE. The plates were read using a BMG Labtech Pherastar plate reader at OD570 nm in kinetic mode for […] (25 cycles of 2 minutes) at 25° C., protecting from light.
Plates were blank-subtracted and ΔAbsorbance calculated by subtracting the first plate read within the linear range from the plate read at the timepoint of interest. PK activity is expressed as ΔAbsorbance and plotted against log [Compound].

In a further experiment the target is T2, recombinant human PKLR (Homo sapiens, UniProt P30613).
T2 construct: His (N); purchased R&D Systems
T2 sequence (P30613 whole entry): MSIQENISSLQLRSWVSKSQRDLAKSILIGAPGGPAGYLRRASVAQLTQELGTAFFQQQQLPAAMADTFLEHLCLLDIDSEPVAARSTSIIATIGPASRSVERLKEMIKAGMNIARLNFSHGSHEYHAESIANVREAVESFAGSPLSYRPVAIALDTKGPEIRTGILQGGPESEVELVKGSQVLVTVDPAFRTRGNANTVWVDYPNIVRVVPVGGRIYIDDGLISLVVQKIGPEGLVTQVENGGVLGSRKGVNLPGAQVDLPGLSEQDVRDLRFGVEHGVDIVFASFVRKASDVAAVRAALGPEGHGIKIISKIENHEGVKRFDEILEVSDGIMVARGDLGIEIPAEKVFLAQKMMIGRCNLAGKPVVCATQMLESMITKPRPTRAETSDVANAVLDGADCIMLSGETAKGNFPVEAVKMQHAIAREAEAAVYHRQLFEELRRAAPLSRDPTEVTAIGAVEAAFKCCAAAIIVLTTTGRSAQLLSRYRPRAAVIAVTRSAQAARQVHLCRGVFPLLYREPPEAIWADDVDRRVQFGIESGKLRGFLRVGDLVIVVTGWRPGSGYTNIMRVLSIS
Put plainly: Human PKLR activation assay (Kinase-Glo Plus luminescence, ATP generated). It counts as biochemical. Particulars: * = repeat experiments; for EC50: activation of N-terminal His-tagged hPKLR, 4-parameter logistic fit; for Emax: read-out: hPKLR Emax. On the procedure:
Biological Example 2—Human PKLR Activation Assay
Measuring In Vitro Activation of Recombinant Human PKLR
Compound activation of recombinant human PKLR pyruvate kinase activity was determined by biochemical assay. N-terminal His-tagged enzyme was sourced from R&D Systems and its substrates phosphoenolpyruvate (PEP) and ADP from Sigma-Aldrich and 2Bscientific Ltd, respectively. The Kinase-Glo® Plus luminescence assay was from Promega. All other reagents were from Sigma-Aldrich. Test Compounds were prepared as 10 mM DMSO stocks and dilution series prepared in DMSO for direct dilution into Assay Buffer comprising 50 mM imidazole, 50 mM KCl, 7 mM MgCl2, 0.01% Tween20, 0.05% BSA (pH 7.2).
Human PKLR was diluted into Assay Buffer to a final concentration of 5 μM. Enzyme-Assay Buffer mix was dispensed into 384-well shallow-well white-walled plates and Test Compounds added by acoustic dispense (Echo®, Labcyte Inc). Following 10 minutes' incubation at room temperature, the enzyme reaction was initiated by acoustic dispensing of ADP+PEP substrate to final concentrations of 254 μM ADP and 53 μM […].
(§1) After 60 minutes' incubation on an orbital shaker (300 rpm, 26° C.), enzyme activity was quantified by the luminescent detection of generated ATP. Kinase-Glo® Plus reagent was added to each well and the plates incubated for a further 15 minutes on an orbital shaker in the dark (300 rpm, 26° C.) before luminescence measurement on a plate reader (PHERAstar® FSX, BMG Labtech).
(§2) Percentage activation was calculated by normalising […] signals to plate LOW (DMSO vehicle) and HIGH (5 μM TEPP-46) controls. EC50 and Emax values were determined from 4-parameter logistic fits of compound concentration-response curves.

Another experiment addresses T3, recombinant human PKM2 (Homo sapiens, UniProt P14618).
T3 construct: His (N); purchased R&D Systems
Put plainly: Human PKM2 activation assay (Kinase-Glo Plus luminescence, ATP generated). Particulars: * = repeat experiments; for EC50: activation of N-terminal His-tagged hPKM2, 4-parameter logistic fit; for Emax: read-out: hPKM2 Emax. In kind it is biochemical. How it is done:
Measuring In Vitro Activation of Recombinant Human PKM2
Compound activation of recombinant human PKM2 pyruvate kinase activity was determined by biochemical assay. N-terminal His-tagged hPKM2 was sourced from R&D Systems and its substrates phosphoenolpyruvate (PEP) and ADP from Sigma-Aldrich and 2Bscientific Ltd, respectively. The Kinase-Glo® Plus luminescence assay was from Promega. All other reagents were from Sigma-Aldrich. Test Compounds were prepared as 10 mM DMSO stocks and dilution series prepared in DMSO for direct dilution into Assay Buffer comprising 50 mM imidazole, 50 mM KCl, 7 mM MgCl2, 0.01% Tween20, 0.05% BSA (pH 7.2).
Human PKM2 was diluted into Assay Buffer comprising 50 mM imidazole, 50 mM KCl, 7 mM MgCl2, 0.01% Tween20, 0.05% BSA (pH 7.2) to a final concentration of […]. Enzyme-Assay Buffer mix was dispensed into a 384-well shallow-well white-walled plate (PerkinElmer) and Test Compounds added by acoustic dispense (Echo®, Labcyte Inc.).
as §1, §2
(In general: In Kinase-Glo more light means more ATP remaining.)

The mark [2] stands for this setting: percentage activation normalised to DMSO (LOW) and 5 μM TEPP-46 (HIGH).

Structures are written as SMILES. Values joined by “and” are separate entries in the source; they are usually repeats but may differ in a detail not shown here. Equal values may be shown once.

The term EC50 denotes the midpoint of the concentration-response curve. As usually defined, the Emax is the size of the effect at its maximum, as opposed to the concentration needed.

T3 sequence (P14618 whole entry): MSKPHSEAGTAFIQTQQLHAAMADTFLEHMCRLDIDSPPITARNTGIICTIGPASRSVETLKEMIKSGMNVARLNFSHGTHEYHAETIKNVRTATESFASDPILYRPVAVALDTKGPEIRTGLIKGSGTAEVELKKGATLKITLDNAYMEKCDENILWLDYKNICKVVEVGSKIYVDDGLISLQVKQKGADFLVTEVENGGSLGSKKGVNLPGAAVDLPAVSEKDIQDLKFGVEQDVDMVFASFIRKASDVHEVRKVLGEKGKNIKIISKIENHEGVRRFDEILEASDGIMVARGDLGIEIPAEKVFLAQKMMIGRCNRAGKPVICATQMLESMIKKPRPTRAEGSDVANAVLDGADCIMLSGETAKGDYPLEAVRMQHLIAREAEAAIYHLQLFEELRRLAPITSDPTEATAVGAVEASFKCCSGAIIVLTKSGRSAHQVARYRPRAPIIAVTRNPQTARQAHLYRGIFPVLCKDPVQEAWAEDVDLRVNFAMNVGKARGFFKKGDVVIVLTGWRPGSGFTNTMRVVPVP
T1 sequence (P14618 2-531 limits assumed): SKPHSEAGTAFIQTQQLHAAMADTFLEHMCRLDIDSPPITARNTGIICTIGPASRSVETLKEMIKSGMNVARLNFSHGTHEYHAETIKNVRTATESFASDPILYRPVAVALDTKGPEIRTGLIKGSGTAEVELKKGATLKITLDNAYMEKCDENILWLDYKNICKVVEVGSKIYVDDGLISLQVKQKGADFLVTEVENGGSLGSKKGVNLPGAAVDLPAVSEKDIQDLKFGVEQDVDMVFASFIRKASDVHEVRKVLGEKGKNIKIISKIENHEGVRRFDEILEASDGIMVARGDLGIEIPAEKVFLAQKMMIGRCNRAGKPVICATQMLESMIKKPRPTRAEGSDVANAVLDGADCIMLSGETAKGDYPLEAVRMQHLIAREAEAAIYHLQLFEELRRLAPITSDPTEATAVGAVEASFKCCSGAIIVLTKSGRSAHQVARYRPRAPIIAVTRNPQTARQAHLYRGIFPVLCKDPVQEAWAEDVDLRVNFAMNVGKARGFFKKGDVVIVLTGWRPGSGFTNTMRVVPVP

`COc1ccc(Cn2ncc3cc(S(=O)(=O)c4cn[nH]c4)ccc3c2=O)nc1` [Example 1, 6-((1H-pyrazol-4-yl)sulfonyl)-2-((5-methoxypyridin-2-yl)methyl)phthalazin-1(2H)-one]: the EC50 in experiment [1] was found to be 97 nM; on recombinant human PKLR, 16 nM; at recombinant human PKM2 it was 114 nM. Further, the Emax at recombinant human PKLR (setting [2]) was 119%; on recombinant human PKM2 (setting [2]), 111%.

For `O=c1c2ccc(S(=O)(=O)c3cnn(C(F)F)c3)cc2cnn1Cc1cc[nH]n1` [Example 2, 2-((1H-pyrazol-3-yl)methyl)-6-((1-(difluoromethyl)-1H-pyrazol-4-yl)sulfonyl)phthalazin-1(2H)-one], the concentration giving a half-maximal response (EC50) in experiment [1] came out at 168 nM; at recombinant human PKLR it was 33.1 nM; at recombinant human PKM2, 104 nM. Further, the Emax on recombinant human PKLR (setting [2]) was determined as 123%; at recombinant human PKM2 (setting [2]), 100%.

For `O=c1c2ccc(S(=O)(=O)c3cnn(CCO)c3)cc2cnn1Cc1ccc2c(n1)CCO2` [Example 3, 2-((2,3-dihydrofuro[3,2-b]pyridin-5-yl)methyl)-6-((1-(2-hydroxyethyl)-1H-pyrazol-4-yl)sulfonyl)phthalazin-1(2H)-one], the EC50 was 70 nM in experiment [1], 6.6 nM at recombinant human PKLR and 50 nM on recombinant human PKM2. Further, the figures for the Emax on recombinant human PKLR (setting [2]) and on recombinant human PKM2 (setting [2]) were 118% and 108%, respectively.

In the case of `O=c1c2ccc(S(=O)(=O)c3cn[nH]c3)cc2cnn1Cc1cc2n(n1)CCO2` [Example 4, 6-((1H-pyrazol-4-yl)sulfonyl)-2-((2,3-dihydropyrazolo[5,1-b]oxazol-6-yl)methyl)phthalazin-1(2H)-one], the results for the concentration for a half-maximal effect (EC50) (in experiment [1]; on recombinant human PKLR; at recombinant human PKM2) were 125 nM, 6.4 nM and 51 nM, respectively. Also, the Emax came out at 122% on recombinant human PKLR (setting [2]) and 91% on recombinant human PKM2 (setting [2]).

Regarding `Cn1cc(S(=O)(=O)c2ccc3c(=O)n(Cc4cc5n(n4)CCO5)ncc3c2)cn1` [Example 5, 2-((2,3-dihydropyrazolo[5,1-b]oxazol-6-yl)methyl)-6-((1-methyl-1H-pyrazol-4-yl)sulfonyl)phthalazin-1(2H)-one], the EC50 in experiment [1] was 93 nM; at recombinant human PKLR it was 23.3 nM and 27.6 nM; on recombinant human PKM2, 98.9 nM and 207 nM. Further, the “hPKLR Emax” value on recombinant human PKLR (setting [2]) is recorded as 128* %. Also, the Emax on recombinant human PKLR (setting [2]) worked out at 121%; at recombinant human PKM2 (setting [2]) it was 110%. Besides, the “hPKM2 Emax” value at recombinant human PKM2 (setting [2]) was 104* %.

For `Cc1[nH]nc(Cn2ncc3cc(S(=O)(=O)c4cc[nH]n4)ccc3c2=O)c1Cl` [Example 6, 6-((1H-pyrazol-3-yl)sulfonyl)-2-((4-chloro-5-methyl-1H-pyrazol-3-yl)methyl)phthalazin-1(2H)-one], the values for the EC50 (in experiment [1]; on recombinant human PKM2) were 94 nM and 43 nM, respectively. The Emax at recombinant human PKM2 (setting [2]) came to 94%.
